Measurements: US12606635B2, “Glypican-2-binding moieties, chimeric antigen receptors and uses thereof” (Nanjing Legend Biotech Co., Ltd., priority 2020, dated 2026)

Columns and labels:
[1] = test system: neuroblastoma SH-SY5Y xenograft; assay: In vivo combination of Compound A and CAR T cells in SH-SY5Y xenograft; settings: FIG. 12A
SH-SY5Y tumor cells = assay: In vitro repetitive challenge assay with Compound A; assay type: cell-based, human
Protocol: To evaluate the effect of 3-(4-amino-1-oxo-1,3 dihydro-2H-isoindol-2-yl)piperidine-2,6-dione (Compound A) on CAR T cell recursive killing potential, T cell expansion and survival, an in vitro repetitive challenge assay was employed. Exemplary CAS70950VH6-BBz CAR T cells on day 11 post-transduction were co-cultured with SH-SY5Y tumor cells at an effector (CAR T) to target cell ratio of 1:2. The co-culture media was supplemented with 10 μM Compound A throughout this study. CAR T cells were re-challenged with tumor cells every 3 days (round 1, round 2, round 3 and round 4). CAR T cells and tumor cells co-cultured without addition of Compound A was used as a control. The percentages of CD3^+ T cells, percentages of CD3^+CAR^+ T cells were analyzed by flow cytometer. The amount of IFNγ in the co-culture supernatant was quantified using HTRF human IFNγ AlphaLISA kit (Perkin Elmer, #62HIFNGPEH) as described in Example 6.

[2] = test system: neuroblastoma SH-SY5Y xenograft; settings: mouse, in vivo
SH-SY5Y cells = assay: Cytotoxicity of CAR T cells in presence of Compound A gradient; assay type: cell-based, human; settings: 0.04-30 μM Compound A, E:T 0.2:1, 20 hours, FIG. 10
Protocol: To evaluate if Compound A influence to the cytotoxicity of CAR T against tumor cell, Compound A (CAS Number:191732-72-6, Sigma-Aldrich, St. Louis) stock was serially diluted to final concentration of 30, 10, 3.33, 1.11, 0.37, 0.12 and 0.04 μM using complete growth medium. In the presence of Compound A gradient, CAR T cells were co-incubated with tumor cells at an effector (CAR T) to target cell ratio of 0.2:1 for 20 hours. CAR T cells and tumor cells co-cultured without addition of Compound A served as a control. Cytotoxicity of CAR T cells on tumor cells was estimated using the Cytotoxicity Detection Kit (LDH) (Roche, #11644793001) as described in Example 6.

For `Nc1cccc2c1CN(C1CCC(=O)NC1=O)C2=O` (stereo not shown) [Compound A, 3-(4-amino-1-oxo-1,3 dihydro-2H-isoindol-2-yl)piperidine-2,6-dione], the “tumor regression, Compound A in combination with CAS70950VH6-BBz CAR-T cells” value ([1]; Compound A 7.5 mg/kg i.p. 21 days plus 1.5×10^6 CAR+ T cells) was “more pronounced tumor regression”, the “tumor growth, single treatment” value ([1]; twelve days after treatment, CAR T 1.5×10^6 i.v. or Compound A 7.5 mg/kg i.p. for 21 days) was “did not achieve any tumor suppression” and the “IFNγ released from CAS70950VH6-BBz CAR T cells compared to non-treated CAR T cells” value (SH-SY5Y tumor cells; 10 μM Compound A) was “higher amount of IFNγ”. For the same molecule, the “CD3+CAR+ T cells survival and expansion after repetitive tumor challenges” value (SH-SY5Y tumor cells; CAS70950VH6-BBz CAR T cells with 10 μM Compound A, FIG. 11A-11B) was “promoted CD3^+CAR^+ T cells survival and expansion”, the “effector activity of CAS70950VH6-BBz CAR T cells after repetitive tumor challenges” value (SH-SY5Y tumor cells; supplemented with 10 μM Compound A, FIG. 11A-11B) was “maintained their effector activity” and the “promotion of CAR+ T cells expansion by Compound A co-administration” value [2] was “about 6 fold”. For the same molecule, the “effect of Compound A on cytotoxicity of CAS70950VH6-BBz CAR T cells against SH-SY5Y” value (SH-SY5Y cells) was “not impaired”.
